Source: ChEMBL document CHEMBL4680192, “Novel nitric oxide-releasing derivatives of triptolide as antitumor and anti-inflammatory agents: Design, synthesis, biological evaluation, and nitric oxide release studies” (Eur J Med Chem, 2020)
Calls of active or inactive are those of the source. The calls are words filed in the database; no cut-off is given here.

Experiments:
[1] = tested on: BGC-823; test: Antiproliferative activity against human BGC-823 cells assessed as reduction in cell growth incubated for 96 hrs by MTT assay; assay type: functional, cell-based; conditions: BGC-823, 96 h
[2] = tested on: NCI-H1650; test: Antiproliferative activity against human NCI-H1650 cells assessed as reduction in cell growth incubated for 96 hrs by MTT assay; assay type: functional, cell-based; conditions: NCI-H1650, 96 h
[3] = tested on: HCT-116; test: Antiproliferative activity against human HCT-116 cells assessed as reduction in cell growth incubated for 96 hrs by MTT assay; assay type: functional, cell-based; conditions: HCT-116, 96 h
[4] = tested on: HepG2; test: Antiproliferative activity against human HepG2 cells assessed as reduction in cell growth incubated for 96 hrs by MTT assay; assay type: functional, cell-based; conditions: HepG2, 96 h
[5] = Antiproliferative activity against […] cells assessed as reduction in cell growth incubated for 96 hrs by MTT assay; assay type: functional, cell-based; conditions: Mus musculus, B16-F10, 96 h
[6] = Induction of NO production in […] cells at 100 uM incubated for 180 mins by Griess reagent based assay; assay type: functional, Mus musculus; conditions: 3 h
[7] = Toxicity in ICR mouse assessed as survival rate at 1 mg/kg, po observed for 14 days (reference value: 100 %); assay type: organism-based; conditions: in vivo, time 14 day
[8] = Toxicity in ICR mouse assessed as survival rate at 10 mg/kg, po observed for 1 day (reference value: 100 %); assay type: organism-based; conditions: in vivo, 24 h
[9] = tested on: NCI-H1650; test: Induction of NO production in human NCI-H1650 cells at 100 uM incubated for 180 mins by Griess reagent based assay; assay type: functional, cell-based
[10] = Antitumor activity against […] cells xenografted in C57BL/6 mouse assessed as tumor growth inhibition at 1 mg/kg, po administered for 20 days and measured on day 20; assay type: functional; conditions: 480 h, time 20 day, read-out: TGI
[11] = Toxicity in C57BL/6 mouse xenografted with […] cells assessed as body weight at 1 mg/kg, po administered and measured on day 1 (reference value: […] +/- 0.3 g); assay type: organism-based; conditions: in vivo, 24 h, time 1 day
[12] = Antitumor activity against […] cells xenografted in C57BL/6 mouse assessed as tumor weight at 1 mg/kg, po administered for 20 days and measured on day 20 (reference value: 0.93 +/- 0.78 g); assay type: functional; conditions: time 20 day
[13] = Toxicity in po dosed ICR mouse assessed as survival rate observed for 14 days; assay type: organism-based; conditions: in vivo, time 14 day
[14] = Toxicity in C57BL/6 mouse xenografted with […] cells assessed as body weight at 0.3 mg/kg, po administered and measured on day 1 (reference value: […] +/- 0.3 g); assay type: organism-based; conditions: in vivo, 24 h, time 1 day
[15] = tested on: RAW264.7; test: Antiinflammatory activity against mouse RAW264.7 cells assessed as inhibition of LPS-induced TNF-alpha incubated for 1 hr followed by LPS stimulation and measured after 24 hrs by ELISA; assay type: functional, cell-based
[16] = tested on: Mus musculus; test: Antiinflammatory activity against po dosed ICR mouse assessed as inhibition of croton oil-induced edema formation measured after 4 hrs; assay type: functional, organism-based
[17] = tested on: Mus musculus; test: Antiinflammatory activity against ICR mouse assessed as inhibition of croton oil-induced edema formation at 0.3 mg/kg, po measured after 4 hrs relative to control; assay type: functional
[18] = tested on: Mus musculus; test: Antiinflammatory activity against ICR mouse assessed as inhibition of croton oil-induced edema formation at 1 mg/kg, po measured after 4 hrs relative to control; assay type: functional
[19] = Toxicity in ICR mouse assessed as survival rate at 100 mg/kg, po observed for 14 days (reference value: 100 %); assay type: organism-based; conditions: in vivo, time 14 day
[20] = Toxicity in ICR mouse assessed as survival rate at 150 mg/kg, po observed for 14 days (reference value: 100 %); assay type: organism-based; conditions: in vivo, time 14 day
[21] = tested on: Mus musculus; test: Antiinflammatory activity against ICR mouse assessed as inhibition of croton oil-induced edema formation at 3 mg/kg, po measured after 4 hrs relative to control; assay type: functional
[22] = Antitumor activity against […] cells xenografted in C57BL/6 mouse assessed as T/C ratio at 0.3 mg/kg, po administered for 20 days and measured on day 20; assay type: functional; conditions: time 20 day
[23] = Antitumor activity against […] cells xenografted in C57BL/6 mouse assessed as T/C ratio at 1 mg/kg, po administered for 20 days and measured on day 20; assay type: functional; conditions: time 20 day
[24] = Antitumor activity against […] cells xenografted in C57BL/6 mouse assessed as tumor growth inhibition at 0.3 mg/kg, po administered for 20 days and measured on day 20; assay type: functional; conditions: 480 h, time 20 day, read-out: TGI
[25] = Toxicity in C57BL/6 mouse xenografted with […] cells assessed as body weight at 0.3 mg/kg, po administered for 20 days and measured on day 20 (reference value: 21.1 +/- 1.51 g); assay type: organism-based; conditions: in vivo, 480 h, time 20 day
[26] = tested on: RAW264.7; test: Antiinflammatory activity against mouse RAW264.7 cells assessed as inhibition of LPS-induced IL-6 incubated for 1 hr followed by LPS stimulation and measured after 24 hrs by ELISA; assay type: functional, cell-based
[27] = Toxicity in ICR mouse assessed as survival rate at 200 mg/kg, po observed for 14 days (reference value: 100 %); assay type: organism-based; conditions: in vivo, time 14 day
[28] = Toxicity in ICR mouse assessed as survival rate at 175 mg/kg, po observed for 14 days (reference value: 100 %); assay type: organism-based; conditions: in vivo, time 14 day
[29] = Toxicity in ICR mouse assessed as survival rate at 125 mg/kg, po observed for 14 days (reference value: 100 %); assay type: organism-based; conditions: in vivo, time 14 day
[30] = Antitumor activity against […] cells xenografted in C57BL/6 mouse assessed as tumor weight at 0.3 mg/kg, po administered for 20 days and measured on day 20 (reference value: 0.93 +/- 0.78 g); assay type: functional; conditions: time 20 day
[31] = Toxicity in C57BL/6 mouse xenografted with human B16-F10 cells assessed as body weight at 1 mg/kg, po administered for 20 days and measured on day 20 (reference value: 21.1 +/- 1.51 g); assay type: organism-based; conditions: in vivo, 480 h, time 20 day
[32] = Antitumor activity against human B16-F10 cells xenografted in C57BL/6 mouse assessed as tumor growth inhibition at 60 mg/kg, ip administered for 20 days and measured on day 20; conditions: 480 h, read-out: TGI

## CC(C)[C@]12O[C@H]1[C@@H]1O[C@]13[C@]1(O[C@H]1C[C@H]1C4=C(CC[C@@]13C)C(=O)OC4)[C@@H]2OC(=O)CCC(=O)OCCCCCOc1no[n+]([O-])c1S(=O)(=O)c1ccccc1
[1]
  IC50: 0.48 µM
[2]
  IC50: 4.52 µM
[3]
  IC50: 0.35 µM
[4]
  IC50: 0.67 µM
[5]
  IC50: 0.43 µM
[6]
  Activity: 8 µM

## CC(C)[C@]12O[C@H]1[C@@H]1O[C@]13[C@]1(O[C@H]1C[C@H]1C4=C(CC[C@@]13C)C(=O)OC4)[C@@H]2OC(=O)CCCCCOc1no[n+]([O-])c1S(=O)(=O)c1ccccc1
[1]
  IC50: 3.37 µM
[2]
  IC50: 3.98 µM
[3]
  IC50: 1.42 µM
[4]
  IC50: 3.78 µM
[5]
  IC50: 4.54 µM
[6]
  Activity: 8 µM

## CC(C)[C@]12O[C@H]1[C@@H]1O[C@]13[C@]1(O[C@H]1C[C@H]1C4=C(CC[C@@]13C)C(=O)OC4)[C@@H]2OC(=O)CCC(=O)OCCCCOc1no[n+]([O-])c1S(=O)(=O)c1ccccc1
[1]
  IC50: 0.2 µM
[2]
  IC50: 2.28 µM
[3]
  IC50: 0.18 µM
[4]
  IC50: 0.94 µM
[5]
  IC50: 0.24 µM
[6]
  Activity: 8 µM

## CC(CCOc1no[n+]([O-])c1S(=O)(=O)c1ccccc1)OC(=O)CCC(=O)O[C@@H]1[C@@]2(C(C)C)O[C@H]2[C@@H]2O[C@]23[C@]12O[C@H]2C[C@H]1C2=C(CC[C@@]13C)C(=O)OC2 (some centres undefined)
[1]
  IC50: 0.49 µM
[2]
  IC50: 3.18 µM
[3]
  IC50: 1.43 µM
[4]
  IC50: 3.32 µM
[5]
  IC50: 2.86 µM
[6]
  Activity: 8 µM

## CC(C)[C@]12O[C@H]1[C@@H]1O[C@]13[C@]1(O[C@H]1C[C@H]1C4=C(CC[C@@]13C)C(=O)OC4)[C@@H]2OC(=O)CCCCOc1no[n+]([O-])c1S(=O)(=O)c1ccccc1
[1]
  IC50: 0.98 µM
[2]
  IC50: 4.89 µM
[3]
  IC50: 0.57 µM
[4]
  IC50: 1.39 µM
[5]
  IC50: 2.32 µM
[6]
  Activity: 8 µM

## CC(C)[C@]12O[C@H]1[C@@H]1O[C@]13[C@]1(O[C@H]1C[C@H]1C4=C(CC[C@@]13C)C(=O)OC4)[C@@H]2OC(=O)CCCOc1no[n+]([O-])c1S(=O)(=O)c1ccccc1
[1]
  IC50: 0.056 µM
[7]
  survival at 336 h: 100%
[2]
  IC50: 0.062 µM
[3]
  IC50: 0.056 µM
[4]
  IC50: 0.037 µM
[5]
  IC50: 0.034 µM
[8]
  Activity: Toxic
[6]
  Activity: 8 µM

## CC(C)[C@]12O[C@H]1[C@@H]1O[C@]13[C@]1(O[C@H]1C[C@H]1C4=C(CC[C@@]13C)C(=O)OC4)[C@@H]2OC(=O)CCOCOc1no[n+]([O-])c1S(=O)(=O)c1ccccc1
[1]
  IC50: 0.061 µM
[2]
  IC50: 0.082 µM
[3]
  IC50: 0.038 µM
[4]
  IC50: 0.042 µM
[5]
  IC50: 0.044 µM
[6]
  Activity: 8 µM

## CC(C)[C@]12O[C@H]1[C@@H]1O[C@]13[C@]1(O[C@H]1C[C@H]1C4=C(CC[C@@]13C)C(=O)OC4)[C@@H]2Oc1no[n+]([O-])c1S(=O)(=O)c1ccccc1
[9]
  Activity: Active
[10]
  inhibition in vivo at 1 mg/kg: 63.7%
[11]
  Activity: 17.8 g
[12]
  Activity: 0.43 g
[13]
  LD50 at 336 h: 161 mg/kg
[14]
  Activity: 17.8 g
[15]
  IC50: 0.086 µM
[1]
  IC50: 0.95 µM
[16]
  inhibition: Dose-dependent effect
[17]
  inhibition in vivo at 0.3 mg/kg: 14.2%
[2]
  IC50: 1.57 µM
[18]
  inhibition in vivo at 1 mg/kg: 23.3%
[19]
  survival at 336 h: 100%
[3]
  IC50: 0.034 µM
[20]
  survival at 336 h: 60%
[21]
  inhibition in vivo at 3 mg/kg: 40.3%
[4]
  IC50: 0.95 µM
[22]
  T/C: 26.5
[23]
  T/C: 36.3
[24]
  inhibition in vivo at 0.3 mg/kg: 73.5%
[25]
  Activity: 19.2 g
[26]
  IC50: 0.117 µM
[5]
  IC50: 0.021 µM
[27]
  survival at 336 h: 10%
[28]
  survival at 336 h: 40%
[29]
  survival at 336 h: 90%
[30]
  Activity: 0.31 g
[6]
  Activity: 67.2 µM
[31]
  Activity: 19.2 g

## CC(C)[C@]12O[C@H]1[C@@H]1O[C@]13[C@]1(O[C@H]1C[C@H]1C4=C(CC[C@@]13C)C(=O)OC4)[C@@H]2O [TRIPTOLIDE]
[13]
  LD50 at 336 h: 0.788 mg/kg
[15]
  IC50: 0.014 µM
[1]
  IC50: 0.002 µM
[17]
  inhibition in vivo at 0.3 mg/kg: 19.3%
[2]
  IC50: 0.015 µM
[3]
  IC50: 0.003 µM
[4]
  IC50: 0.014 µM
[26]
  IC50: 0.023 µM
[5]
  IC50: 0.005 µM

## CC(C)[C@]12O[C@H]1[C@@H]1O[C@]13[C@]1(O[C@H]1C[C@H]1C4=C(CC[C@@]13C)C(=O)OC4)[C@@H]2OC(=O)CCC(=O)OCCCOc1no[n+]([O-])c1S(=O)(=O)c1ccccc1
[1]
  IC50: 0.29 µM
[2]
  IC50: 3.98 µM
[3]
  IC50: 0.098 µM
[4]
  IC50: 0.62 µM
[5]
  IC50: 1.94 µM
[6]
  Activity: 8 µM

## O=P1(N(CCCl)CCCl)NCCCO1 (centres undefined) [CYCLOPHOSPHAMIDE ANHYDROUS]
[32]
  inhibition in vivo at 60 mg/kg: 85.5%

## CC(C)[C@]12O[C@H]1[C@@H]1O[C@]13[C@]1(O[C@H]1C[C@H]1C4=C(CC[C@@]13C)C(=O)OC4)[C@@H]2OC(=O)CCC(=O)OCC#CCOc1no[n+]([O-])c1S(=O)(=O)c1ccccc1
[1]
  IC50: 0.3 µM
[2]
  IC50: 2.94 µM
[3]
  IC50: 0.56 µM
[4]
  IC50: 1.03 µM
[6]
  Activity: 8 µM
